# Source: paper PMC6102592, “Synthesis of New Benzothiazole Acylhydrazones as Anticancer Agents” (Molecules : A Journal of Synthetic Chemistry and Natural …, 2018)
# Assays:
# [1] = system: A549 (Human lung adenocarcinoma epithelial cell line); assay: MTT cytotoxicity test, A549; assay type: cell-based; details: Homo sapiens, A549, 24 h incubation
# Procedure: (§1) MTT assay, depending on the capability of metabolically active cells that change the pale yellow MTT colour to a spectrophotometrically measured blue formazan salt, is one of the most favoured cytotoxicity tests. We assessed the antitumor potential of new benzothiazole-acylhydrazones on A549, C6, MCF-7, and HT-29 cell lines with various concentrations (1 mM, 0.316 mM, 0.1 mM, 0.0316 mM, 0.01 mM, 0.00316 mM, 0.001 mM, 0.000316 mM). In addition, the cytotoxic activities of compounds 4a–4j were evaluated against healthy NIH3T3 cells, owing to show the selectivity towards carcinogenic cells. The IC50 values of the compounds against cell lines are represented in Table 1.
# (§2) Metabolic activity of viable cells was measured by MTT assay based on the reduction of 3-(4,5-dimethylthiazol-2-yl)-2,5-diphenyltetrazolium salt to a formazan product, which can be quantified spectrophotometrically to determine the percent of viable cells.
# (§3) Anticancer activities of new benzothiazole acylhydrazones derivatives were evaluated against A549 C6, MCF-7 and HT-29 cell lines. The selectivity of their cytotoxic effects was evaluated on NIH/3T3 mouse embryonic fibroblast cells. NIH/3T3 cells were incubated in DMEM supplemented with fetal calf serum, penicillin (100 IU/mL), streptomycin ([…]) and 7.5% NaHCO3 at 37 °C in a humidified atmosphere of 95% air and 5% CO2. Carcinogenic cells were incubated in RPMI medium supplemented with fetal calf serum, penicillin (100 IU/mL), streptomycin ([…]) and 7.5% NaHCO3 at 37 °C in a humidified atmosphere of 95% air and 5% CO2. All cell lines were seeded at a density of 1 × 10^4 cells into the 96-well plates. After 24 h of incubating period, the culture mediums were removed and test compounds were added at concentrations of 0.000316–1 mM. After a 24 h incubation period, OD of samples were measured by a microplate reader (Biotek, Winooski, VT, USA) at 540 nm. Inhibition % at concentrations was determined using the formula below and IC50 values were calculated by nonlinear regression analysis using the SigmaPlot v.10 package program (Manufacturer, City, US State abbrev. if applicable, Country).
# [2] = system: C6 (Rat brain glioma cell line); assay: MTT cytotoxicity test, C6; assay type: cell-based; details: Rattus norvegicus, Glioma cell, 24 h incubation
# Procedure: as §1, §2, §3
# [3] = system: MCF-7 (Human breast adenocarcinoma cell line); assay: MTT cytotoxicity test, MCF-7; assay type: cell-based; details: Homo sapiens, MCF7, 24 h incubation
# Procedure: as §1, §2, §3
# [4] = system: HT-29 (Human colorectal adenocarcinoma cell line); assay: MTT cytotoxicity test, HT-29; assay type: cell-based; details: Homo sapiens, HT-29, 24 h incubation
# Procedure: as §1, §2, §3
# [5] = system: NIH3T3 (Mouse embryo fibroblast cell line); assay: MTT cytotoxicity test, healthy NIH3T3 cells; assay type: cell-based; details: Mus musculus, NIH3T3; MTT, 24 h incubation, healthy cells
# Procedure: as §1, §2, §3
# [6] = system: DNA synthesis of C6 cells; assay: DNA synthesis inhibition assay (BrdU cell proliferation); assay type: cell-based, Rat; details: C6, IC50/4 to 4 × IC50, 24 h
# Procedure: This immunostaining assay is related to detecting the attendance of BrdU into nuclear DNA instead of thymidine during S-phase of the cell cycle using specific anti-BrdU antibodies. Thus, this study was performed to evaluate inhibitory effects of compounds 4d, 4e, and 4h on proliferation of C6 cell lines. […] Figure 2 represents the DNA synthesis inhibitory effect of compounds 4d, 4e, and 4h on C6 cells.
# The BrdU cell proliferation method was performed to analyse the effects of compounds 4d, 4e and 4h on proliferation of C6 cells. C6 cells were seeded into the 96-well plates at a density of 1 × 10^4 cells. […] At the end of the incubation period, BrdU solution was added and cells were reincubated for 2 h at 37 °C. Anti-BrdU-POD ([…]) was added and the mixture was incubated for 90 min. Microplates were washed with PBS for three times. After adding substrate solution, the mixture was incubated for 15 min. OD of the wells were determined at 492 nm.
# C6 cell line = assay: Flow cytometric analysis (Annexin V-FITC/PI); assay type: cell-based, Rat
# Description: In the therapy of cancer, apoptosis, or programmed cell death, is one of the distinguished mechanisms of cytotoxic agents. It is an important approach to express the cell death pathway and most of the anticancer drugs induce apoptosis in tumor cells. Annexin V-FITC is a reagent that can detect and measure quantitate of apoptotic cells by flow cytometry. Staining cells with PI and Annexin V-FITC show the differences between live, apoptotic, dead, and late apoptotic or necrotic cells. Thus, this method provides evidence on the pathway of cell death.
# Death pathway of the carcinogenic cell lines was detected by Annexin V-FITC Apoptosis Detection Kit (BD, Pharmingen, City, US State abbrev. if applicable, Country) as reported in the manufacturer’s instructions. […] After 24 h incubation period, cells were harvested by centrifugation at 1200 rpm for 5 min. at room temperature, rinsed with cold water twice and then suspended at 1 × 10^6 cells/mL concentration in Annexin V-FITC binding buffer. Propidium iodide ([…]) and annexin V-FITC ([…]) were added for staining the cells and the fluorescence measurements was performed using a flow cytometer. FCSExpress software (version, Manufacturer, City, US State abbrev. if applicable, Country) was used to display the percent of normal and apoptotic cells at different stages. […] The experiments were carried out in triplicate.
smiles,measurement,setting,value
"COc1ccc2sc(SCC(=O)NN=Cc3ccc(N4CCCC(C)C4)cc3)nc2c1 (stereo not shown) [Compound 4h, 2-((5-Methoxybenzo[d]thiazol-2-yl)thio)-N’-(4-(3-methylpiperidin-1-yl)benzylidene)acetohydrazide]",IC50,[1],> 1000 µM
same,IC50,[2],30 µM
same,IC50,[3],> 1000 µM
same,IC50,[4],> 1000 µM
same,IC50,[5],100 µM
same,DNA synthesis inhibitory activity compared with cisplatin,[6],could not display the same ability as compounds 4d and 4e to inhibit DNA synthesis
same,Q1 percentage of necrotic cells,"C6 cell line; C6, 2 × IC50 (0.06 mM), 24 h",5.4%
same,Q2 percentage of late apoptotic cells,"C6 cell line; C6, 2 × IC50 (0.06 mM), 24 h",10.5%
same,Q3 percentage of viable cells,"C6 cell line; C6, 2 × IC50 (0.06 mM), 24 h",75.2%
same,Q4 percentage of early apoptotic cells,"C6 cell line; C6, 2 × IC50 (0.06 mM), 24 h",8.9%
same,Q1 percentage of necrotic cells,"C6 cell line; C6, IC50 (0.03 mM), 24 h",8.6%
same,Q2 percentage of late apoptotic cells,"C6 cell line; C6, IC50 (0.03 mM), 24 h",7.4%
same,Q3 percentage of viable cells,"C6 cell line; C6, IC50 (0.03 mM), 24 h",79.4%
same,Q4 percentage of early apoptotic cells,"C6 cell line; C6, IC50 (0.03 mM), 24 h",4.6%
same,Q1 percentage of necrotic cells,"C6 cell line; C6, IC50/2 (0.015 mM), 24 h",10.8%
same,Q2 percentage of late apoptotic cells,"C6 cell line; C6, IC50/2 (0.015 mM), 24 h",4.9%
same,Q4 percentage of early apoptotic cells,"C6 cell line; C6, IC50/2 (0.015 mM), 24 h",0.3%
same,percentages of apoptotic cells,"C6 cell line; C6, at IC50 concentrations, 24 h (sum of Q2 and Q4)",12.0%
same,viability at 15 µM,"C6 cell line; Rattus norvegicus, C6, IC50/2 (0.015 mM), 24 h, read-out: Q3 percentage of viable cells",84.1%
